Source: ChEMBL document CHEMBL4130373, “Design, synthesis and biological evaluation of 4-anilinoquinoline derivatives as novel potent tubulin depolymerization agents” (Eur J Med Chem, 2017)
Counter-ions that a name gives are not always drawn. Calls of active or inactive are those of the source. No cut-off for these calls is given here.

Key:
HCT-8 = test: Antiproliferative activity against human HCT8 cells after 48 hrs by MTT assay; format: functional, cell-based; conditions: HCT-8, 48 h
[1] = Antiproliferative activity against human HCT8/V cells after 48 hrs by MTT assay; format: functional, cell-based; conditions: HCT-8, 48 h
[2] = Resistance index, ratio of IC50 for human HCT8/V cells to IC50 for human HCT8 cells; format: functional
MDA-MB-231 = test: Antiproliferative activity against human MDA-MB-231 cells after 48 hrs by MTT assay; format: functional, cell-based; conditions: MDA-MB-231, 48 h
[3] = Solubility of the compound in physiological saline at 1 mg; format: physicochemical; conditions: buffer
HCT-116 [4] = test: Antitumor activity against human HCT116 cells xenografted in Balb/c athymic nude mouse assessed as tumor growth inhibition at 100 mg/kg, iv administered once in every 7 days measured on day 18 post treatment relative to control; format: functional; conditions: HCT-116, iv, read-out: TGI
Mus musculus [5] = test: Toxicity in Balb/c athymic nude mouse xenografted with human HCT116 cells assessed as body weight loss at 100 mg/kg, iv administered once in every 7 days relative to control; format: organism-based; conditions: in vivo, 168 h
HCT-116 [6] = test: Antiproliferative activity against human HCT116 cells after 48 hrs by MTT assay; format: functional, cell-based; conditions: HCT-116, 48 h
A549 = test: Antiproliferative activity against human A549 cells after 48 hrs by MTT assay; format: functional, cell-based; conditions: A549, 48 h
A2780S [7] = test: Antiproliferative activity against human A2780S cells after 48 hrs by MTT assay; format: functional, cell-based
MCF7 = test: Antiproliferative activity against human MCF7 cells after 48 hrs by MTT assay; format: functional, cell-based; conditions: MCF7, 48 h
L02 = test: Antiproliferative activity against human LO2 cells after 48 hrs by MTT assay; format: cell-based; conditions: L02, 48 h
HEK293 = test: Antiproliferative activity against HEK293 cells after 48 hrs by MTT assay; format: cell-based; conditions: Homo sapiens, HEK293, 48 h
[8] = Antiproliferative activity against human HCT8/T cells after 48 hrs by MTT assay; format: functional, cell-based; conditions: HCT-8, 48 h
NCI/ADR-RES = test: Antiproliferative activity against human MCF7/ADR cells after 48 hrs by MTT assay; format: functional, cell-based
A2780/Taxol = test: Antiproliferative activity against human A2780T cells after 48 hrs by MTT assay; format: functional, cell-based
[9] = Resistance index, ratio of IC50 for human HCT8/T cells to IC50 for human HCT8 cells; format: functional
[10] = Resistance index, ratio of IC50 for human MCF7/ADR cells to IC50 for human MCF7 cells; format: functional
[11] = Resistance index, ratio of IC50 for human A2780T cells to IC50 for human A2780S cells; format: functional
A2780S [12] = test: Cell cycle arrest in human A2780S cells assessed as accumulation at G0/G1 phase at 3 nM after 24 hrs by propidium iodide staining based flow cytometry (reference value: 44.3%); format: functional
A2780S [13] = test: Cell cycle arrest in human A2780S cells assessed as accumulation at S phase at 3 nM after 24 hrs by propidium iodide staining based flow cytometry (reference value: 40.36%); format: functional
A2780S [14] = test: Cell cycle arrest in human A2780S cells assessed as accumulation at G2/M phase at 3 nM after 24 hrs by propidium iodide staining based flow cytometry (reference value: 15.34%); format: functional
A2780S [15] = test: Cell cycle arrest in human A2780S cells assessed as accumulation at G0/G1 phase at 10 nM after 24 hrs by propidium iodide staining based flow cytometry (reference value: 44.3%); format: functional
A2780S [16] = test: Cell cycle arrest in human A2780S cells assessed as accumulation at S phase at 10 nM after 24 hrs by propidium iodide staining based flow cytometry (reference value: 40.36%); format: functional
A2780S [17] = test: Cell cycle arrest in human A2780S cells assessed as accumulation at G2/M phase at 10 nM after 24 hrs by propidium iodide staining based flow cytometry (reference value: 15.34%); format: functional
A2780S [18] = test: Cell cycle arrest in human A2780S cells assessed as accumulation at G0/G1 phase at 30 nM after 24 hrs by propidium iodide staining based flow cytometry (reference value: 44.3%); format: functional
A2780S [19] = test: Cell cycle arrest in human A2780S cells assessed as accumulation at S phase at 30 nM after 24 hrs by propidium iodide staining based flow cytometry (reference value: 40.36%); format: functional
A2780S [20] = test: Cell cycle arrest in human A2780S cells assessed as accumulation at G2/M phase at 30 nM after 24 hrs by propidium iodide staining based flow cytometry (reference value: 15.34%); format: functional
A2780S [21] = test: Cell cycle arrest in human A2780S cells assessed as accumulation at G2/M phase after 24 hrs by propidium iodide staining based flow cytometry; format: functional
A2780S [22] = test: Induction of alpha-tubulin depolymerization in human A2780S cells at 5 to 50 nM after 24 hrs by DAPI staining based immunofluorescence microscopic method; format: cell-based
Sus scrofa = species on record: Sus scrofa; test: Inhibition of porcine brain tubulin polymerization preincubated for 5 mins followed by GTP addition measured every 2 mins by spectrophotometric method
HepG2 [23] = test: Binding affinity to beta-tubulin colchicine binding site in human HepG2 cells assessed as reduction in EBI-beta-tubulin adduct formation preincubated for 2 hrs followed by EBI addition measured after 1.5 hrs by Western blot analysis; format: cell-based
HCT-116 [24] = test: Antitumor activity against human HCT116 cells xenografted in Balb/c athymic nude mouse assessed as tumor growth inhibition at 2.5 mg/kg administered once in every 2 days measured on day 18 post treatment relative to control; format: functional; conditions: read-out: TGI
Mus musculus [25] = test: Toxicity in Balb/c athymic nude mouse xenografted with human HCT116 cells assessed as body weight loss at 2.5 mg/kg administered once in every 2 days relative to control; format: organism-based; conditions: in vivo, 48 h
Mus musculus [26] = test: Toxicity in Balb/c athymic nude mouse xenografted with human HCT116 cells assessed as effect on feeding behaviour at 2.5 mg/kg administered once in every 2 days; format: organism-based; conditions: in vivo, 48 h
Mus musculus [27] = test: Toxicity in Balb/c athymic nude mouse xenografted with human HCT116 cells assessed as abnormal behaviour at 2.5 mg/kg administered once in every 2 days; format: organism-based; conditions: in vivo, 48 h
A2780S [28] = test: Induction of alpha-tubulin depolymerization in human A2780S cells at 100 nM after 24 hrs by DAPI staining based immunofluorescence microscopic method; format: cell-based
HepG2 [29] = test: Binding affinity to beta-tubulin colchicine binding site in human HepG2 cells assessed as reduction in EBI-beta-tubulin adduct formation at 5 uM preincubated for 2 hrs followed by EBI addition measured after 1.5 hrs by Western blot analysis; format: cell-based

CC[C@]1(O)C[C@@H]2CN(CCc3c([nH]c4ccccc34)[C@@](C(=O)OC)(c3cc4c(cc3OC)N(C)[C@H]3[C@@](O)(C(=O)OC)[C@H](OC(C)=O)[C@]5(CC)C=CCN6CC[C@]43[C@@H]65)C2)C1 [VINBLASTINE]
IC50 (HCT-8): 20.2 nM
IC50 [1]: 2060 nM
Ratio IC50 [2]: 101.8

COc1ccc(N(C)c2cc(C)nc3ccccc23)cc1NC(=O)CCl
IC50 (MDA-MB-231): 6.6 nM
solubility [3]: Soluble

COc1ccc(N(C)c2cc(Cl)nc3ccccc23)cc1N
IC50 (MDA-MB-231): 43.1 nM
solubility [3]: Insoluble

CSc1ccc(N(C)c2cc(C)nc3ccccc23)cc1N
IC50 (MDA-MB-231): 9.5 nM
solubility [3]: Soluble

O=c1[nH]cc(F)c(=O)[nH]1 [FLUOROURACIL]
inhibition in vivo at 100 mg/kg (HCT-116 [4]): 60.8%
Activity (Mus musculus [5]): < 10%

COC(=O)C(=O)Nc1cc(N(C)c2cc(C)nc3ccccc23)ccc1OC
IC50 (MDA-MB-231): > 500 nM
solubility [3]: Insoluble

COc1ccc(N(C)c2cc(C)nc3ccccc23)cc1NC(=O)CBr
IC50 (MDA-MB-231): 87.2 nM
solubility [3]: Soluble

C=CC(=O)Nc1cc(N(C)c2cc(C)nc3ccccc23)ccc1OC
IC50 (MDA-MB-231): 43.4 nM
solubility [3]: Soluble

COC(=O)CCCC(=O)Nc1cc(N(C)c2cc(C)nc3ccccc23)ccc1OC
IC50 (MDA-MB-231): 186 nM
solubility [3]: Insoluble

CSc1ccc(N(C)c2cc(C)nc3ccccc23)cc1
IC50 (MDA-MB-231): 15.5 nM
solubility [3]: Soluble

COc1ccc(N(C)c2cc(C)nc3ccccc23)cc1NC(=O)CN1CCSCC1
IC50 (MDA-MB-231): > 500 nM
solubility [3]: Soluble

COc1ccc(N(C)c2cc(C)nc3ccccc23)cc1NC(=O)CCCl
IC50 (MDA-MB-231): 96.6 nM
solubility [3]: Soluble

COc1ccc(N(C)c2cc(C)nc3ccccc23)cc1NC(=O)CCCCCl
IC50 (MDA-MB-231): 363 nM
solubility [3]: Insoluble

COc1ccc(N(C)c2cc(C)nc3ccccc23)cc1NC(C)=O
IC50 (MDA-MB-231): 9.1 nM
solubility [3]: Soluble

COc1ccc(N(C)c2cc(C)nc3ccccc23)cc1NC(=O)CN1CCOCC1
IC50 (MDA-MB-231): 256 nM
solubility [3]: Insoluble

COc1ccc(N(C)c2cc(C)nc3ccccc23)cc1NC(=O)CN(C)CCC#N
IC50 (MDA-MB-231): > 500 nM
solubility [3]: Insoluble

COc1ccc(N(C)c2cc(C)nc3ccccc23)cc1
IC50 (MDA-MB-231): 6.6 nM
solubility [3]: Insoluble

CCCCC(=O)Nc1cc(N(C)c2cc(C)nc3ccccc23)ccc1OC
IC50 (MDA-MB-231): 82.4 nM
solubility [3]: Insoluble

COc1ccc(N(C)c2cc(C)nc3ccccc23)cc1NC(=O)CN1CCCC(C)C1 (stereo unspecified)
IC50 (MDA-MB-231): 394 nM
solubility [3]: Insoluble

CCC(=O)Nc1cc(N(C)c2cc(C)nc3ccccc23)ccc1OC
IC50 (MDA-MB-231): 18.5 nM
solubility [3]: Soluble

COc1ccc(N(C)c2cc(C)nc3ccccc23)cc1NC(=O)CCCCl
IC50 (MDA-MB-231): 3.9 nM
solubility [3]: Soluble
IC50 (HCT-8): 3.4 nM
IC50 (HCT-116 [6]): 2.7 nM
IC50 (A549): 3.2 nM
IC50 (A2780S [7]): 2.2 nM
IC50 (MCF7): 1.5 nM
IC50 (L02): 75.6 nM
IC50 (HEK293; read-out: IC50): 45.3 nM
IC50 [8]: 3.5 nM
IC50 [1]: 3.5 nM
IC50 (NCI/ADR-RES): 3.3 nM
IC50 (A2780/Taxol): 3.7 nM
Ratio IC50 [9]: 1
Ratio IC50 [2]: 1
Ratio IC50 [10]: 2.3
Ratio IC50 [11]: 1.7
Activity (A2780S [12]): 27.95%
Activity (A2780S [13]): 32.57%
Activity (A2780S [14]): 39.48%
Activity (A2780S [15]): 2.68%
Activity (A2780S [16]): 22.69%
Activity (A2780S [17]): 74.62%
Activity (A2780S [18]): 2.3%
Activity (A2780S [19]): 17.03%
Activity (A2780S [20]): 80.67%
Activity (A2780S [21]): Dose-dependent effect
Activity (A2780S [22]): Active
inhibition (Sus scrofa): Dose-dependent effect
Activity (HepG2 [23]): Dose-dependent effect
inhibition in vivo at 2.5 mg/kg (HCT-116 [24]): 54.3%
Activity (Mus musculus [25]): < 10%
Activity (Mus musculus [26]): Non-Toxic
Activity (Mus musculus [27]): Non-Toxic

CC(=O)O[C@H]1C(=O)[C@@]2(C)[C@H]([C@H](OC(=O)c3ccccc3)[C@]3(O)C[C@H](OC(=O)[C@H](O)[C@@H](NC(=O)c4ccccc4)c4ccccc4)C(C)=C1C3(C)C)[C@]1(OC(C)=O)CO[C@@H]1C[C@@H]2O [PACLITAXEL]
IC50 (HCT-8): 17.4 nM
IC50 (A2780S [7]): 12.3 nM
IC50 [8]: 9880 nM
IC50 (A2780/Taxol): 25100 nM
Ratio IC50 [9]: 567.4
Ratio IC50 [11]: 2042.3
Activity (A2780S [28]): inactive

COc1cccc2c1C(=O)c1c(O)c3c(c(O)c1C2=O)C[C@@](O)(C(=O)CO)C[C@@H]3O[C@H]1C[C@H](N)[C@H](O)[C@H](C)O1 [DOXORUBICIN HYDROCHLORIDE]
IC50 (NCI/ADR-RES): 54800 nM

COc1ccc(N(C)c2ccnc3ccccc23)cc1
IC50 (MDA-MB-231): > 500 nM
solubility [3]: Insoluble

CCCC(=O)Nc1cc(N(C)c2cc(C)nc3ccccc23)ccc1OC
IC50 (MDA-MB-231): 58.4 nM
solubility [3]: Insoluble

COc1ccc(N(C)c2cc(C)nc3ccccc23)cc1N
IC50 (MDA-MB-231): 3.2 nM
solubility [3]: Insoluble

CCOC(=O)C(=O)Nc1cc(N(C)c2cc(C)nc3ccccc23)ccc1OC
IC50 (MDA-MB-231): 443 nM
solubility [3]: Soluble

COc1cc2c(c(OC)c1OC)-c1ccc(OC)c(=O)cc1[C@@H](NC(C)=O)CC2 [COLCHICINE]
IC50 (MDA-MB-231): 38.2 nM
IC50 (HCT-8): 13.4 nM
IC50 (A549): 32.7 nM
IC50 (A2780S [7]): 12.3 nM
IC50 (MCF7): 13.4 nM
IC50 (L02): 26.5 nM
IC50 (HEK293): 10.2 nM
Activity (A2780S [28]): Active
Activity (HepG2 [29]): Active

COc1ccc(N(C)c2cc(C)nc3ccccc23)cc1NC(=O)CNCCNc1ccccc1
IC50 (MDA-MB-231): 83.6 nM
solubility [3]: Insoluble

COc1ccc(N(C)c2ccnc3ccccc23)cc1N
IC50 (MDA-MB-231): > 500 nM
solubility [3]: Soluble

COc1ccc(N(C)c2cc(Cl)nc3ccccc23)cc1
IC50 (MDA-MB-231): > 500 nM
solubility [3]: Insoluble
